Legend:
Format in all cases: cell-based
E. coli DH5α = assay: Antibacterial activity: MIC and growth curve against E. coli DH5α in 96-well plate; settings: minimal inhibitory concentration against E. coli DH5α; 96-well plate, 5×10^5 CFU/mL, 37° C., judged after 8 h
How it was run: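 Log-phase bacteria (OD600 ~0.5) resuspended in LB at 5×10^5 CFU/mL, exposed to recombinant protein at 50, 25, 12.5 μg/mL final in triplicate, 37 °C shaking at 175 rpm. OD600 read every 30 min; MIC is lowest concentration showing no growth.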

E. coli BL21 = assay: MIC against Gram-negative bacteria: E. coli BL21
How it was run: (§1)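 Purified recombinant human EGF domain proteins are tested by broth dilution in LB against a 5×10^5 CFU/mL inoculum, with two-fold serial dilutions run in triplicate. Plates are incubated at 37° C with shaking, and the MIC is read as the lowest protein concentration without growth.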

Pseudomonas aeruginosa = assay: MIC against Gram-negative bacteria: Pseudomonas aeruginosa
How it was run: as §1

Klebsiella pneumonia = assay: MIC against Gram-negative bacteria: Klebsiella pneumonia
How it was run: as §1

Enterobacter cloacae = assay: MIC against Gram-negative bacteria: Enterobacter cloacae
How it was run: as §1

Aeromonas hydrophila = assay: MIC against Gram-negative bacteria: Aeromonas hydrophila
How it was run: as §1

Citrobacter diversus = assay: MIC against Gram-negative bacteria: Citrobacter diversus
How it was run: as §1

Moraxella catarrhalis = assay: MIC against Gram-negative bacteria: Moraxella catarrhalis
How it was run: as §1

Proteus mirabilis = assay: MIC against Gram-negative bacteria: Proteus mirabilis
How it was run: as §1

Proteus vulgaris = assay: MIC against Gram-negative bacteria: Proteus vulgaris
How it was run: as §1

Serratia marcescens = assay: MIC against Gram-negative bacteria: Serratia marcescens
How it was run: as §1

[1] = E. coli BL21, 10 h cultivation at 37° C., 5×10^5 CFU/mL
[2] = P. aeruginosa, 10 h cultivation at 37° C., 5×10^5 CFU/mL
[3] = K. pneumonia, 10 h cultivation at 37° C., 5×10^5 CFU/mL
[4] = E. cloacae, 10 h cultivation at 37° C., 5×10^5 CFU/mL
[5] = A. hydrophila, 10 h cultivation at 37° C., 5×10^5 CFU/mL
[6] = C. diversus, 10 h cultivation at 37° C., 5×10^5 CFU/mL
[7] = M. catarrhalis, 10 h cultivation at 37° C., 5×10^5 CFU/mL
[8] = P. mirabilis, 10 h cultivation at 37° C., 5×10^5 CFU/mL
[9] = P. vulgaris, 10 h cultivation at 37° C., 5×10^5 CFU/mL
[10] = S. marcescens, 10 h cultivation at 37° C., 5×10^5 CFU/mL
[11] = E. coli BL21, 10 h cultivation at 37° C.
[12] = P. aeruginosa, 10 h cultivation at 37° C.
[13] = K. pneumonia, 10 h cultivation at 37° C.
[14] = E. cloacae, 10 h cultivation at 37° C.
[15] = A. hydrophila, 10 h cultivation at 37° C.
[16] = C. diversus, 10 h cultivation at 37° C.
[17] = M. catarrhalis, 10 h cultivation at 37° C.
[18] = P. mirabilis, 10 h cultivation at 37° C.
[19] = P. vulgaris, 10 h cultivation at 37° C.
[20] = S. marcescens, 10 h cultivation at 37° C.
[21] = 96-well plate, 5×10^5 CFU/mL, 37° C., 10 h

PRT812 (YGKHCRKKCNCANRGRCHRLYGACLCDPGLYGRFCH; listed as Homo sapiens)
25 µg/mL: MIC (μg/mL) K. pneumonia (Klebsiella pneumonia; [3]) | MIC (μg/mL) A. hydrophila (Aeromonas hydrophila; [5])
12.5 µg/mL: MIC (E. coli DH5α) | MIC (μg/mL) E. coli BL21 (E. coli BL21; [1]) | MIC (μg/mL) P. aeruginosa (Pseudomonas aeruginosa; [2]) | MIC (μg/mL) C. diversus (Citrobacter diversus; [6]) | MIC (μg/mL) P. mirabilis (Proteus mirabilis; [8]) | MIC (μg/mL) S. marcescens (Serratia marcescens; [10])
50 µg/mL: MIC (μg/mL) E. cloacae (Enterobacter cloacae; [4]) | MIC (μg/mL) M. catarrhalis (Moraxella catarrhalis; [7]) | MIC (μg/mL) P. vulgaris (Proteus vulgaris; [9])

PRT966 (PSHPCAHEPCSHGICYDAPGGFRCVCEPGWSGPRCS; listed as Homo sapiens)
12.5 µg/mL: MIC (E. coli BL21; [11]) | MIC (Enterobacter cloacae; [14]) | MIC (Moraxella catarrhalis; [17]) | MIC (Serratia marcescens; [20])
25 µg/mL: MIC (Klebsiella pneumonia; [13]) | MIC (Citrobacter diversus; [16]) | MIC (Proteus vulgaris; [19])
50 µg/mL: MIC (E. coli DH5α) | MIC (Pseudomonas aeruginosa; [12]) | MIC (Aeromonas hydrophila; [15]) | MIC (Proteus mirabilis; [18])

PRT74 (CDCFPHGSHSRTCDMATGQCACKPGVIGRQCNRCDNPFAEVTTLGCEV; listed as Homo sapiens)
25 µg/mL: MIC (μg/mL) P. aeruginosa (Pseudomonas aeruginosa; Pseudomonas aeruginosa, 96-well plate, 5×10^5 CFU/mL, 37° C., 10 h) | MIC (μg/mL) E. cloacae (Enterobacter cloacae; Enterobacter cloacae, 96-well plate, 5×10^5 CFU/mL, 37° C., 10 h) | MIC (μg/mL) S. marcescens (Serratia marcescens; Serratia marcescens, 96-well plate, 5×10^5 CFU/mL, 37° C., 10 h)
50 µg/mL: MIC (E. coli DH5α) | MIC (μg/mL) K. pneumonia (Klebsiella pneumonia; Klebsiella pneumonia, 96-well plate, 5×10^5 CFU/mL, 37° C., 10 h)
12.5 µg/mL: MIC (μg/mL) E. coli BL21 (E. coli BL21; E. coli BL21, 96-well plate, 5×10^5 CFU/mL, 37° C., 10 h) | MIC (μg/mL) A. hydrophila (Aeromonas hydrophila; Aeromonas hydrophila, 96-well plate, 5×10^5 CFU/mL, 37° C., 10 h) | MIC (μg/mL) C. diversus (Citrobacter diversus; Citrobacter diversus, 96-well plate, 5×10^5 CFU/mL, 37° C., 10 h) | MIC (μg/mL) M. catarrhalis (Moraxella catarrhalis; Moraxella catarrhalis, 96-well plate, 5×10^5 CFU/mL, 37° C., 10 h) | MIC (μg/mL) P. mirabilis (Proteus mirabilis; Proteus mirabilis, 96-well plate, 5×10^5 CFU/mL, 37° C., 10 h) | MIC (μg/mL) P. vulgaris (Proteus vulgaris; Proteus vulgaris, 96-well plate, 5×10^5 CFU/mL, 37° C., 10 h)

PRT1485 (DVNECRRPLERRVCHHSCHNTVGSFLCTCRPGFRLRADRVSCE; listed as Homo sapiens)
50 µg/mL: MIC against E. coli BL21 (E. coli BL21; E. coli BL21, 5×10^5 CFU/mL, 10 h cultivation at 37° C.) | MIC against A. hydrophila (Aeromonas hydrophila; Aeromonas hydrophila, 5×10^5 CFU/mL, 10 h cultivation at 37° C.) | MIC against M. catarrhalis (Moraxella catarrhalis; Moraxella catarrhalis, 5×10^5 CFU/mL, 10 h cultivation at 37° C.)
12.5 µg/mL: MIC (E. coli DH5α) | MIC against P. aeruginosa (Pseudomonas aeruginosa; Pseudomonas aeruginosa, 5×10^5 CFU/mL, 10 h cultivation at 37° C.) | MIC against K. pneumonia (Klebsiella pneumonia; Klebsiella pneumonia, 5×10^5 CFU/mL, 10 h cultivation at 37° C.) | MIC against E. cloacae (Enterobacter cloacae; Enterobacter cloacae, 5×10^5 CFU/mL, 10 h cultivation at 37° C.) | MIC against C. diversus (Citrobacter diversus; Citrobacter diversus, 5×10^5 CFU/mL, 10 h cultivation at 37° C.) | MIC against P. mirabilis (Proteus mirabilis; Proteus mirabilis, 5×10^5 CFU/mL, 10 h cultivation at 37° C.) | MIC against P. vulgaris (Proteus vulgaris; Proteus vulgaris, 5×10^5 CFU/mL, 10 h cultivation at 37° C.) | MIC against S. marcescens (Serratia marcescens; Serratia marcescens, 5×10^5 CFU/mL, 10 h cultivation at 37° C.)

PRT778 (QNQSCPVNYCYNQGHCYISQTLGCQPMCTCPPAFTDSRCF; listed as Homo sapiens)
25 µg/mL: MIC (μg/mL) P. vulgaris (Proteus vulgaris; [9])
50 µg/mL: MIC (E. coli DH5α) | MIC (μg/mL) P. aeruginosa (Pseudomonas aeruginosa; [2]) | MIC (μg/mL) E. cloacae (Enterobacter cloacae; [4])
12.5 µg/mL: MIC (μg/mL) E. coli BL21 (E. coli BL21; [1]) | MIC (μg/mL) K. pneumonia (Klebsiella pneumonia; [3]) | MIC (μg/mL) A. hydrophila (Aeromonas hydrophila; [5]) | MIC (μg/mL) C. diversus (Citrobacter diversus; [6]) | MIC (μg/mL) M. catarrhalis (Moraxella catarrhalis; [7]) | MIC (μg/mL) P. mirabilis (Proteus mirabilis; [8]) | MIC (μg/mL) S. marcescens (Serratia marcescens; [10])

PRT634 (DIDECQHRHLCAHGQCRNTEGSFQCVCDQGYRASGLGDHCE; listed as Homo sapiens)
50 µg/mL: MIC P. aeruginosa (Pseudomonas aeruginosa; [21])
12.5 µg/mL: MIC (E. coli DH5α) | MIC E. cloacae (Enterobacter cloacae; [21]) | MIC C. diversus (Citrobacter diversus; [21]) | MIC P. vulgaris (Proteus vulgaris; [21])
25 µg/mL: MIC E. coli BL21 (E. coli BL21; [21]) | MIC K. pneumonia (Klebsiella pneumonia; [21]) | MIC A. hydrophila (Aeromonas hydrophila; [21]) | MIC M. catarrhalis (Moraxella catarrhalis; [21]) | MIC P. mirabilis (Proteus mirabilis; [21]) | MIC S. marcescens (Serratia marcescens; [21])

PRT615 (CDCHALGSTNGQCDIRTGQCECQPGITGQHCERCEVNHFGFGPEGCKP; listed as Homo sapiens)
25 µg/mL: MIC E. coli BL21 (E. coli BL21; [21]) | MIC K. pneumonia (Klebsiella pneumonia; [21]) | MIC A. hydrophila (Aeromonas hydrophila; [21]) | MIC M. catarrhalis (Moraxella catarrhalis; [21]) | MIC P. vulgaris (Proteus vulgaris; [21])
12.5 µg/mL: MIC (E. coli DH5α) | MIC P. aeruginosa (Pseudomonas aeruginosa; [21]) | MIC E. cloacae (Enterobacter cloacae; [21]) | MIC P. mirabilis (Proteus mirabilis; [21])
50 µg/mL: MIC C. diversus (Citrobacter diversus; [21]) | MIC S. marcescens (Serratia marcescens; [21])

PRT936 (VLAPCSPNPCENAAVCKESPNFESYTCLCAPGWQGQRCT; listed as Homo sapiens)
25 µg/mL: MIC (E. coli DH5α) | MIC (Pseudomonas aeruginosa; [12]) | MIC (Aeromonas hydrophila; [15])
12.5 µg/mL: MIC (E. coli BL21; [11]) | MIC (Enterobacter cloacae; [14]) | MIC (Moraxella catarrhalis; [17]) | MIC (Proteus vulgaris; [19])
50 µg/mL: MIC (Klebsiella pneumonia; [13]) | MIC (Citrobacter diversus; [16]) | MIC (Proteus mirabilis; [18]) | MIC (Serratia marcescens; [20])

PRT243 (DVNECGMKPRPCQHRCVNTHGSYKCFCLSGHMLMPDATCV; listed as Homo sapiens)
25 µg/mL: MIC (μg/mL) A. hydrophila (Aeromonas hydrophila; [5]) | MIC (μg/mL) M. catarrhalis (Moraxella catarrhalis; [7]) | MIC (μg/mL) P. vulgaris (Proteus vulgaris; [9])
12.5 µg/mL: MIC (E. coli DH5α) | MIC (μg/mL) E. coli BL21 (E. coli BL21; [1]) | MIC (μg/mL) P. aeruginosa (Pseudomonas aeruginosa; [2]) | MIC (μg/mL) K. pneumonia (Klebsiella pneumonia; [3]) | MIC (μg/mL) E. cloacae (Enterobacter cloacae; [4]) | MIC (μg/mL) C. diversus (Citrobacter diversus; [6]) | MIC (μg/mL) P. mirabilis (Proteus mirabilis; [8]) | MIC (μg/mL) S. marcescens (Serratia marcescens; [10])

PRT784 (FGKNCAGICTCTNNGTCNPIDRSCQCYPGWIGSDCS; listed as Homo sapiens)
50 µg/mL: MIC (E. coli DH5α) | MIC (μg/mL) K. pneumonia (Klebsiella pneumonia; [3]) | MIC (μg/mL) A. hydrophila (Aeromonas hydrophila; [5]) | MIC (μg/mL) M. catarrhalis (Moraxella catarrhalis; [7]) | MIC (μg/mL) P. vulgaris (Proteus vulgaris; [9])
25 µg/mL: MIC (μg/mL) E. coli BL21 (E. coli BL21; [1])
12.5 µg/mL: MIC (μg/mL) P. aeruginosa (Pseudomonas aeruginosa; [2]) | MIC (μg/mL) E. cloacae (Enterobacter cloacae; [4]) | MIC (μg/mL) C. diversus (Citrobacter diversus; [6]) | MIC (μg/mL) P. mirabilis (Proteus mirabilis; [8]) | MIC (μg/mL) S. marcescens (Serratia marcescens; [10])
